Where two headings read alike, the source gives them in different places.
What was measured:
Test in all cases: MTT cell proliferation assay
Assay type in all cases: cell-based
3T3 cells = conditions: Mus musculus, NIH3T3, approximately 64-72 hours incubation
Outline: (§1)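 Cytotoxicity was measured by MTT: OD490 of the solubilized formazan after roughly 4 h with MTT reagent, reported as mean percent inhibition relative to the negative control. Test compounds covered eight concentrations between 1 nM and 30 μM, added to 5,000–10,000 cells per well that had attached overnight.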

MS751 cells = conditions: Homo sapiens, MS751, MS751 cells, approximately 64-72 hours incubation
Outline: as §1

Z138 cells = conditions: Homo sapiens, Z-138, Z138 cells, approximately 64-72 hours incubation
Outline: as §1

[1] = read-out: MTT Assay IC50 MS-751
[2] = read-out: MTT Assay IC50, MS-751
[3] = read-out: MTT Assay IC50, Z-138

## CN1CCN(C(=O)c2ccc(-c3cc(Cl)c4oc(CNC(=O)/C=C/c5ccc(N)nc5)cc4c3)nc2)CC1 [Compound 584, (E)-3-(6-aminopyridin-3-yl)-N-((7-chloro-5-(5-(4-methylpiperazine-1-carbonyl)pyridin-2-yl)benzofuran-2-yl)methyl)acrylamide]
3T3 cells; read-out: MTT Assay IC50 3T3
  IC50: 5000 to 10000 nM
MS751 cells; [1]
  IC50: < 100 nM
Z138 cells; read-out: MTT Assay IC50 Z-138
  IC50: < 100 nM

## Nc1ccc(/C=C/C(=O)NCc2cc3cc(-c4ccc(C(=O)N5CCC(F)(F)CC5)cc4)cc(OC(F)(F)F)c3o2)cn1 [Compound 686, (E)-3-(6-aminopyridin-3-yl)-N-((5-(4-(4,4-difluoropiperidine-1-carbonyl)phenyl)-7-(trifluoromethoxy)benzofuran-2-yl)methyl)acrylamide]
3T3 cells; read-out: MTT Assay IC50, 3T3
  IC50: > 10000 nM
MS751 cells; [2]
  IC50: 100 to 5000 nM
Z138 cells; [3]
  IC50: 100 to 5000 nM

## O=C(/C=C/c1cccnc1)NCc1cc2cc(-c3ccc(C(=O)N4CCC(F)(F)CC4)cc3)cc(-c3cccnc3)c2o1 [Compound 725, (E)-N-((5-(4-(4,4-difluoropiperidine-1-carbonyl)phenyl)-7-(pyridin-3-yl)benzofuran-2-yl)methyl)-3-(pyridin-3-yl)acrylamide]
3T3 cells; read-out: MTT Assay IC50, 3T3
  IC50: < 100 nM
MS751 cells; [2]
  IC50: < 100 nM
Z138 cells; [3]
  IC50: < 100 nM

## CC(=O)c1ccc(-c2cc(Cl)c3oc(CNC(=O)/C=C/c4ccc(N)nc4)cc3c2)s1 [Compound 500, (E)-N-((5-(5-acetylthiophen-2-yl)-7-chlorobenzofuran-2-yl)methyl)-3-(6-aminopyridin-3-yl) acrylamide]
3T3 cells; read-out: MTT Assay IC50 3T3
  IC50: > 10000 nM
MS751 cells; [1]
  IC50: 100 to 5000 nM
Z138 cells; read-out: MTT Assay IC50 Z-138
  IC50: 100 to 5000 nM

## CC1(O)CCN(C(=O)c2ccc(-c3cc(C(F)(F)F)c4oc(CNC(=O)/C=C/c5ccc(N)nc5)cc4c3)nc2)CC1 [Compound 620, (E)-3-(6-aminopyridin-3-yl)-N-((5-(5-(4-hydroxy-4-methylpiperidine-1-carbonyl)pyridin-2-yl)-7-(trifluoromethyl)benzofuran-2-yl)methyl)acrylamide]
3T3 cells; read-out: MTT Assay IC50 3T3
  IC50: > 10000 nM
MS751 cells; [1]
  IC50: < 100 nM
Z138 cells; read-out: MTT Assay IC50 Z-138
  IC50: < 100 nM

## Nc1ccc(/C=C/C(=O)NCc2cc3cc(-c4ccc(C(=O)N5CCOCC5)cn4)cc(Cl)c3o2)cn1 [Compound 560, (E)-3-(6-aminopyridin-3-yl)-N-((7-chloro-5-(5-(morpholine-4-carbonyl)pyridin-2-yl)benzofuran-2-yl)methyl)acrylamide]
3T3 cells; read-out: MTT Assay IC50 3T3
  IC50: > 10000 nM
MS751 cells; [1]
  IC50: 100 to 5000 nM
Z138 cells; read-out: MTT Assay IC50 Z-138
  IC50: 100 to 5000 nM

## Nc1ccc(/C=C/C(=O)NCc2cc3cccc(-c4ccc(C(=O)N5CCOCC5)cc4)c3o2)cn1 [Compound 559, (E)-3-(6-aminopyridin-3-yl)-N-((7-(4-(morpholine-4-carbonyl)phenyl)benzofuran-2-yl)methyl)acrylamide]
3T3 cells; read-out: MTT Assay IC50 3T3
  IC50: 100 to 5000 nM
MS751 cells; [1]
  IC50: < 100 nM
Z138 cells; read-out: MTT Assay IC50 Z-138
  IC50: < 100 nM

## C[C@@H]1COCCN1C(=O)c1ccc(-c2cc(Cl)c3oc(CNC(=O)/C=C/c4ccc(N)nc4)cc3c2)cc1 [Compound 516, (R,E)-3-(6-aminopyridin-3-yl)-N-((7-chloro-5-(4-(3-methylmorpholine-4-carbonyl)phenyl)benzofuran-2-yl)methyl)acrylamide]
3T3 cells; read-out: MTT Assay IC50 3T3
  IC50: > 10000 nM
MS751 cells; [1]
  IC50: 100 to 5000 nM
Z138 cells; read-out: MTT Assay IC50 Z-138
  IC50: 100 to 5000 nM

## O=C(/C=C/c1cccnc1)NCc1cc2cc(-c3ccc(C(=O)N4CCC(F)(F)CC4)cn3)cc(-c3ccncc3)c2o1 [Compound 674]
3T3 cells; read-out: MTT Assay IC50, 3T3
  IC50: < 100 nM
MS751 cells; [2]
  IC50: < 100 nM
Z138 cells; [3]
  IC50: < 100 nM

## CC1(C)CN(S(=O)(=O)c2ccc(-c3cc(Cl)c4oc(CNC(=O)/C=C/c5ccc(N)nc5)cc4c3)cc2)C1 [Compound 555, (E)-3-(6-aminopyridin-3-yl)-N-((7-chloro-5-(4-(3,3-dimethylazetidin-1-ylsulfonyl)phenyl)benzofuran-2-yl)methyl)acrylamide]
3T3 cells; read-out: MTT Assay IC50 3T3
  IC50: > 10000 nM
MS751 cells; [1]
  IC50: 100 to 5000 nM
Z138 cells; read-out: MTT Assay IC50 Z-138
  IC50: 100 to 5000 nM

## Nc1ccc(/C=C/C(=O)NCc2cc3cc(C4CC4C(=O)N4CCC(F)(F)CC4)cc(C(F)(F)F)c3o2)cn1 (stereo not drawn) [Compound 695, (E)-3-(6-aminopyridin-3-yl)-N-((5-(2-(4,4-difluoropiperidine-1-carbonyl)cyclopropyl)-7-(trifluoromethyl)benzofuran-2-yl)methyl)acrylamide]
3T3 cells; read-out: MTT Assay IC50, 3T3
  IC50: > 10000 nM
MS751 cells; [2]
  IC50: 100 to 5000 nM
Z138 cells; [3]
  IC50: 100 to 5000 nM

## CC1(C)CN(C(=O)c2ccc(-c3cc(Cl)c4oc(CNC(=O)/C=C/c5ccc(N)nc5)cc4c3)cc2)C1 [Compound 529, (E)-3-(6-aminopyridin-3-yl)-N-((7-chloro-5-(4-(3,3-dimethylazetidine-1-carbonyl)phenyl)benzofuran-2-yl)methyl)acrylamide]
3T3 cells; read-out: MTT Assay IC50 3T3
  IC50: > 10000 nM
MS751 cells; [1]
  IC50: 5000 to 10000 nM
Z138 cells; read-out: MTT Assay IC50 Z-138
  IC50: 100 to 5000 nM

## COc1cc(-c2ccc(S(=O)(=O)N3CCOCC3)cc2)cc2cc(CNC(=O)/C=C/c3ccc(N)nc3)oc12 [Compound 635, (E)-3-(6-aminopyridin-3-yl)-N-((7-methoxy-5-(4-(morpholinosulfonyl)phenyl)benzofuran-2-yl)methyl)acrylamide]
3T3 cells; read-out: MTT Assay IC50 3T3
  IC50: 100 to 5000 nM
MS751 cells; [1]
  IC50: < 100 nM
Z138 cells; read-out: MTT Assay IC50 Z-138
  IC50: < 100 nM

## Nc1ccc(/C=C/C(=O)NCc2cc3cc(-c4ccc(C(=S)N5CCC(F)(F)CC5)cc4)cc(-c4ccc(F)cc4F)c3o2)cn1 [Compound 706, (E)-3-(6-aminopyridin-3-yl)-N-((7-(2,4-difluorophenyl)-5-(4-(4,4-difluoropiperidine-1-carbonothioyl)phenyl)benzofuran-2-yl)methyl)acrylamide]
3T3 cells; read-out: MTT Assay IC50, 3T3
  IC50: 100 to 5000 nM
MS751 cells; [2]
  IC50: < 100 nM
Z138 cells; [3]
  IC50: < 100 nM

## Nc1ccc(/C=C/C(=O)NCc2cc3cc(-c4ccc(C(=O)N5CC6(C5)CC(F)(F)C6)cn4)cc(C(F)(F)F)c3o2)cn1 [Compound 661, (E)-3-(6-aminopyridin-3-yl)-N-((5-(5-(6,6-difluoro-2-azaspiro[3.3]heptane-2-carbonyl)pyridin-2-yl)-7-(trifluoromethyl)benzofuran-2-yl)methyl)acrylamide]
3T3 cells; read-out: MTT Assay IC50, 3T3
  IC50: > 10000 nM
MS751 cells; [2]
  IC50: 100 to 5000 nM
Z138 cells; [3]
  IC50: 100 to 5000 nM

## Nc1ccc(/C=C/C(=O)NCc2cc3c(-c4ccc(C(=O)N5CCC(F)(F)CC5)cc4)cc(Cl)cc3o2)cn1 [Compound 713, (E)-3-(6-aminopyridin-3-yl)-N-((6-chloro-4-(4-(4,4-difluoropiperidine-1-carbonyl)phenyl)benzofuran-2-yl)methyl)acrylamide]
3T3 cells; read-out: MTT Assay IC50, 3T3
  IC50: 5000 to 10000 nM
MS751 cells; [2]
  IC50: 100 to 5000 nM
Z138 cells; [3]
  IC50: 100 to 5000 nM

## Nc1ccc(/C=C/C(=O)NCc2cc3cc(-c4ccc(C(=O)NNc5cnccn5)cc4)cc(C(F)(F)F)c3o2)cn1 [Compound 519, (E)-3-(6-aminopyridin-3-yl)-N-((5-(4-(2-(pyrazin-2-yl)hydrazinecarbonyl)phenyl)-7-(trifluoromethyl)benzofuran-2-yl)methyl)acrylamide]
3T3 cells; read-out: MTT Assay IC50 3T3
  IC50: > 10000 nM
MS751 cells; [1]
  IC50: 100 to 5000 nM
Z138 cells; read-out: MTT Assay IC50 Z-138
  IC50: 100 to 5000 nM

## Nc1ccc(/C=C/C(=O)NCc2cc3cc(-c4ccc(C(=O)N5CCNCC5)cn4)cc(Cl)c3o2)cn1 [Compound 589, (E)-3-(6-aminopyridin-3-yl)-N-((7-chloro-5-(5-(piperazine-1-carbonyl)pyridin-2-yl)benzofuran-2-yl)methyl)acrylamide]
3T3 cells; read-out: MTT Assay IC50 3T3
  IC50: > 10000 nM
MS751 cells; [1]
  IC50: 100 to 5000 nM
Z138 cells; read-out: MTT Assay IC50 Z-138
  IC50: < 100 nM

## Nc1ccc(/C=C/C(=O)NCc2cc3cc(-c4cc(C(=O)N5CCOCC5)c(F)cn4)cc(Cl)c3o2)cn1 [Compound 588, (E)-3-(6-aminopyridin-3-yl)-N-((7-chloro-5-(5-fluoro-4-(morpholine-4-carbonyl)pyridin-2-yl)benzofuran-2-yl)methyl)acrylamide]
3T3 cells; read-out: MTT Assay IC50 3T3
  IC50: 100 to 5000 nM
MS751 cells; [1]
  IC50: < 100 nM
Z138 cells; read-out: MTT Assay IC50 Z-138
  IC50: < 100 nM

## Nc1ccc(/C=C/C(=O)NCc2nc3cc(-c4ccc(C(=O)N5CC(F)(F)C5)cc4)cc(Cl)c3o2)cn1 [Compound 509, (E)-3-(6-aminopyridin-3-yl)-N-((7-chloro-5-(4-(3,3-difluoroazetidine-1-carbonyl)phenyl)benzo[d]oxazol-2-yl)methyl)acrylamide]
3T3 cells; read-out: MTT Assay IC50 3T3
  IC50: > 10000 nM
MS751 cells; [1]
  IC50: 100 to 5000 nM
Z138 cells; read-out: MTT Assay IC50 Z-138
  IC50: 100 to 5000 nM

## COc1cc(-c2ccc(C(=O)N3CCOCC3)cn2)cc2cc(CNC(=O)/C=C/c3ccc(N)nc3)oc12 [Compound 640, (E)-3-(6-aminopyridin-3-yl)-N-((7-methoxy-5-(5-(morpholine-4-carbonyl)pyridin-2-yl)benzofuran-2-yl)methyl)acrylamide]
3T3 cells; read-out: MTT Assay IC50 3T3
  IC50: > 10000 nM
MS751 cells; [1]
  IC50: < 100 nM
Z138 cells; read-out: MTT Assay IC50 Z-138
  IC50: < 100 nM

## Nc1ccc(/C=C/C(=O)NCc2cc3cc(-c4ccc(C(=O)N5CCC(F)(F)CC5)cc4)cc(-c4ccncc4)c3o2)cn1 [Compound 722, (E)-3-(6-aminopyridin-3-yl)-N-((5-(4-(4,4-difluoropiperidine-1-carbonyl)phenyl)-7-(pyridin-4-yl)benzofuran-2-yl)methyl)acrylamide]
3T3 cells; read-out: MTT Assay IC50, 3T3
  IC50: 100 to 5000 nM
MS751 cells; [2]
  IC50: < 100 nM
Z138 cells; [3]
  IC50: < 100 nM

## Nc1ccc(/C=C/C(=O)NCc2cc3cc(-c4ccc(C(=O)N5CC6(COC6)C5)cc4)cc(C(F)(F)F)c3o2)cn1 [Compound 611, (E)-N-((5-(4-(2-oxa-6-azaspiro[3.3]heptane-6-carbonyl)phenyl)-7-(trifluoromethyl)benzofuran-2-yl)methyl)-3-(6-aminopyridin-3-yl)acrylamide]
3T3 cells; read-out: MTT Assay IC50 3T3
  IC50: > 10000 nM
MS751 cells; [1]
  IC50: < 100 nM
Z138 cells; read-out: MTT Assay IC50 Z-138
  IC50: < 100 nM

## Nc1ccc(/C=C/C(=O)NCc2cc3cc(-c4ccc(C(=O)N5CCC(F)(F)CC5)cc4)cc(-c4cc(Cl)cc(Cl)c4)c3o2)cn1 [Compound 700, (E)-3-(6-aminopyridin-3-yl)-N-((7-(3,5-dichlorophenyl)-5-(4-(4,4-difluoropiperidine-1-carbonyl)phenyl)benzofuran-2-yl)methyl)acrylamide]
3T3 cells; read-out: MTT Assay IC50, 3T3
  IC50: 100 to 5000 nM
MS751 cells; [2]
  IC50: < 100 nM
Z138 cells; [3]
  IC50: < 100 nM
